{
  "source": "PubChem BioAssay AID1963863",
  "about": "(Molecular Pharmacology Branch, DTP, NCI, 2024);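 further: compound exposure lasted 7 days before the readout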;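 on viability, T/C: 100% = DMSO vehicle control viability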",
  "system": "931267-113-T-J1-PDC KRAS spheroid with HUVEC/MSC, viability",
  "test": "Anticancer human tumor 931267-113-T-J1-PDC patient-derived colon adenocarcinoma cell line growth inhibition [KRAS2]",
  "details": "for viability, T/C: stronger effect = lower value",
  "outline": "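KRAS-mutant tumor cells were grown as spheroids with HUVEC endothelial cells and human MSCs as stroma. Targeted agents were tested alone and with KRAS pathway inhibitors. Doses started at or near clinical Cmax, or 10 microM, descending half-log.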",
  "key": {"[1]": {"details": "curve of first compound, second compound 0.1 µM"}, "[2]": {"details": "curve of first compound, second compound 0.316 µM"}, "[3]": {"details": "curve of first compound, second compound 1 µM"}, "[4]": {"details": "curve of first compound, second compound 3.16 µM"}, "[5]": {"details": "second compound 0.1 µM, first compound 0.0316 µM"}, "[6]": {"details": "second compound 0.1 µM, first compound 0.1 µM"}, "[7]": {"details": "second compound 0.316 µM, first compound 0.0316 µM"}, "[8]": {"details": "second compound 0.316 µM, first compound 0.1 µM"}, "[9]": {"details": "second compound 1 µM, first compound 0.0316 µM"}, "[10]": {"details": "second compound 1 µM, first compound 0.1 µM"}, "[11]": {"details": "second compound 3.16 µM, first compound 0.0316 µM"}, "[12]": {"details": "second compound 3.16 µM, first compound 0.1 µM"}},
  "data": [
    {"smiles": "CC1(C)CCC(CN2CCN(c3ccc(C(=O)NS(=O)(=O)c4ccc(NCC5CCOCC5)c([N+](=O)[O-])c4)c(Oc4cnc5[nH]ccc5c4)c3)CC2)=C(c2ccc(Cl)cc2)C1", "values": [
      {"measurement": "viability, T/C", "setting": "compound 0.0316 µM", "result": "99.5% [middle of 5 runs]"},
      {"measurement": "viability, T/C", "setting": "compound 0.1 µM", "result": "89.5% [middle of 5 runs]"},
      {"measurement": "viability, T/C", "setting": "compound 0.316 µM", "result": "91.4% [middle of 5 runs]"},
      {"measurement": "viability, T/C", "setting": "compound 1 µM", "result": "96.9% [middle of 5 runs]"},
      {"measurement": "viability, T/C", "setting": "compound 3.16 µM", "result": "33.6% [middle of 5 runs]"},
      {"measurement": "viability, T/C", "setting": "compound 10 µM", "result": "10.7% [middle of 5 runs]"},
      {"measurement": "IC50", "setting": "curve of compound", "result": "2.34 µM [middle of 5 runs]"}
    ]},
    {"smiles": "CC1OCC2(CCN(c3cnc(Sc4ccnc(N)c4Cl)c(N)n3)CC2)C1N", "note": "(stereo not drawn) + C=CC(=O)N1CCN(c2nc(=O)n(-c3c(C)ccnc3C(C)C)c3nc(-c4c(O)cccc4F)c(F)cc23)C(C)C1", "values": [
      {"measurement": "IC50", "setting": "[1]", "result": "> 10", "unit": "µM"},
      {"measurement": "IC50", "setting": "[2]", "result": "> 10", "unit": "µM"},
      {"measurement": "IC50", "setting": "[3]", "result": "> 10", "unit": "µM"},
      {"measurement": "IC50", "setting": "[4]", "result": "> 10", "unit": "µM"},
      {"measurement": "IC50", "setting": "curve of first compound, second compound 10 µM", "result": "> 10", "unit": "µM"},
      {"measurement": "viability, T/C", "setting": "[5]", "result": 86.7, "unit": "%"},
      {"measurement": "viability, T/C", "setting": "[6]", "result": 73.4, "unit": "%"},
      {"measurement": "viability, T/C", "setting": "second compound 0.1 µM, first compound 0.316 µM", "result": 69.9, "unit": "%"},
      {"measurement": "viability, T/C", "setting": "second compound 0.1 µM, first compound 1 µM", "result": 64.8, "unit": "%"},
      {"measurement": "viability, T/C", "setting": "second compound 0.1 µM, first compound 3.16 µM", "result": 67.5, "unit": "%"},
      {"measurement": "viability, T/C", "setting": "second compound 0.1 µM, first compound 10 µM", "result": 77.4, "unit": "%"},
      {"measurement": "viability, T/C", "setting": "[7]", "result": 119, "unit": "%"},
      {"measurement": "viability, T/C", "setting": "[8]", "result": 92.3, "unit": "%"},
      {"measurement": "viability, T/C", "setting": "second compound 0.316 µM, first compound 0.316 µM", "result": 83.3, "unit": "%"},
      {"measurement": "viability, T/C", "setting": "second compound 0.316 µM, first compound 1 µM", "result": 73.6, "unit": "%"},
      {"measurement": "viability, T/C", "setting": "second compound 0.316 µM, first compound 3.16 µM", "result": 80.4, "unit": "%"},
      {"measurement": "viability, T/C", "setting": "second compound 0.316 µM, first compound 10 µM", "result": 83.5, "unit": "%"},
      {"measurement": "viability, T/C", "setting": "[9]", "result": 118, "unit": "%"},
      {"measurement": "viability, T/C", "setting": "[10]", "result": 87.8, "unit": "%"},
      {"measurement": "viability, T/C", "setting": "second compound 1 µM, first compound 0.316 µM", "result": 79, "unit": "%"},
      {"measurement": "viability, T/C", "setting": "second compound 1 µM, first compound 1 µM", "result": 64.1, "unit": "%"},
      {"measurement": "viability, T/C", "setting": "second compound 1 µM, first compound 3.16 µM", "result": 78.7, "unit": "%"},
      {"measurement": "viability, T/C", "setting": "second compound 1 µM, first compound 10 µM", "result": 78.9, "unit": "%"},
      {"measurement": "viability, T/C", "setting": "[11]", "result": 99.7, "unit": "%"},
      {"measurement": "viability, T/C", "setting": "[12]", "result": 91.8, "unit": "%"},
      {"measurement": "viability, T/C", "setting": "second compound 3.16 µM, first compound 0.316 µM", "result": 100, "unit": "%"},
      {"measurement": "viability, T/C", "setting": "second compound 3.16 µM, first compound 1 µM", "result": 87.3, "unit": "%"},
      {"measurement": "viability, T/C", "setting": "second compound 3.16 µM, first compound 3.16 µM", "result": 70.1, "unit": "%"},
      {"measurement": "viability, T/C", "setting": "second compound 3.16 µM, first compound 10 µM", "result": 82.3, "unit": "%"},
      {"measurement": "viability, T/C", "setting": "second compound 10 µM, first compound 0.0316 µM", "result": 92.3, "unit": "%"},
      {"measurement": "viability, T/C", "setting": "second compound 10 µM, first compound 0.1 µM", "result": 74.8, "unit": "%"},
      {"measurement": "viability, T/C", "setting": "second compound 10 µM, first compound 0.316 µM", "result": 79.7, "unit": "%"},
      {"measurement": "viability, T/C", "setting": "second compound 10 µM, first compound 1 µM", "result": 75.6, "unit": "%"},
      {"measurement": "viability, T/C", "setting": "second compound 10 µM, first compound 3.16 µM", "result": 74.1, "unit": "%"},
      {"measurement": "viability, T/C", "setting": "second compound 10 µM, first compound 10 µM", "result": 67, "unit": "%"}
    ]},
    {"smiles": "Cn1ncnc1[C@H]1c2n[nH]c(=O)c3cc(F)cc(c23)N[C@@H]1c1ccc(F)cc1", "note": "+ C=CC(=O)N1CCN(c2nc(OCC3CCCN3C)nc3c2CCN(c2cccc4cccc(C)c24)C3)CC1CC#N", "values": [
      {"measurement": "IC50", "setting": "curve of first compound, second compound 0.0316 µM", "result": "> 0.1", "unit": "µM"},
      {"measurement": "IC50", "setting": "[1]", "result": "> 0.1", "unit": "µM"},
      {"measurement": "IC50", "setting": "[2]", "result": "> 0.1", "unit": "µM"},
      {"measurement": "IC50", "setting": "[3]", "result": "> 0.1", "unit": "µM"},
      {"measurement": "IC50", "setting": "[4]", "result": "< 0.000316", "unit": "µM"},
      {"measurement": "viability, T/C", "setting": "second compound 0.0316 µM, first compound 0.000316 µM", "result": 118, "unit": "%"},
      {"measurement": "viability, T/C", "setting": "second compound 0.0316 µM, first compound 0.001 µM", "result": 89.7, "unit": "%"},
      {"measurement": "viability, T/C", "setting": "second compound 0.0316 µM, first compound 0.00316 µM", "result": 90, "unit": "%"},
      {"measurement": "viability, T/C", "setting": "second compound 0.0316 µM, first compound 0.01 µM", "result": 75.5, "unit": "%"},
      {"measurement": "viability, T/C", "setting": "second compound 0.0316 µM, first compound 0.0316 µM", "result": 77.2, "unit": "%"},
      {"measurement": "viability, T/C", "setting": "second compound 0.0316 µM, first compound 0.1 µM", "result": 80.7, "unit": "%"},
      {"measurement": "viability, T/C", "setting": "second compound 0.1 µM, first compound 0.000316 µM", "result": 102, "unit": "%"},
      {"measurement": "viability, T/C", "setting": "second compound 0.1 µM, first compound 0.001 µM", "result": 90.9, "unit": "%"},
      {"measurement": "viability, T/C", "setting": "second compound 0.1 µM, first compound 0.00316 µM", "result": 69.8, "unit": "%"},
      {"measurement": "viability, T/C", "setting": "second compound 0.1 µM, first compound 0.01 µM", "result": 77.9, "unit": "%"},
      {"measurement": "viability, T/C", "setting": "[5]", "result": 78.2, "unit": "%"},
      {"measurement": "viability, T/C", "setting": "[6]", "result": 67.3, "unit": "%"},
      {"measurement": "viability, T/C", "setting": "second compound 0.316 µM, first compound 0.000316 µM", "result": 89.9, "unit": "%"},
      {"measurement": "viability, T/C", "setting": "second compound 0.316 µM, first compound 0.001 µM", "result": 66.3, "unit": "%"},
      {"measurement": "viability, T/C", "setting": "second compound 0.316 µM, first compound 0.00316 µM", "result": 89.9, "unit": "%"},
      {"measurement": "viability, T/C", "setting": "second compound 0.316 µM, first compound 0.01 µM", "result": 86, "unit": "%"},
      {"measurement": "viability, T/C", "setting": "[7]", "result": 69.8, "unit": "%"},
      {"measurement": "viability, T/C", "setting": "[8]", "result": 66.3, "unit": "%"},
      {"measurement": "viability, T/C", "setting": "second compound 1 µM, first compound 0.000316 µM", "result": 76, "unit": "%"},
      {"measurement": "viability, T/C", "setting": "second compound 1 µM, first compound 0.001 µM", "result": 76.5, "unit": "%"},
      {"measurement": "viability, T/C", "setting": "second compound 1 µM, first compound 0.00316 µM", "result": 68.5, "unit": "%"},
      {"measurement": "viability, T/C", "setting": "second compound 1 µM, first compound 0.01 µM", "result": 80.8, "unit": "%"},
      {"measurement": "viability, T/C", "setting": "[9]", "result": 68.8, "unit": "%"},
      {"measurement": "viability, T/C", "setting": "[10]", "result": 69.9, "unit": "%"},
      {"measurement": "viability, T/C", "setting": "second compound 3.16 µM, first compound 0.000316 µM", "result": 1.48, "unit": "%"},
      {"measurement": "viability, T/C", "setting": "second compound 3.16 µM, first compound 0.001 µM", "result": 4.65, "unit": "%"},
      {"measurement": "viability, T/C", "setting": "second compound 3.16 µM, first compound 0.00316 µM", "result": 3.13, "unit": "%"},
      {"measurement": "viability, T/C", "setting": "second compound 3.16 µM, first compound 0.01 µM", "result": 15.2, "unit": "%"},
      {"measurement": "viability, T/C", "setting": "[11]", "result": 0.64, "unit": "%"},
      {"measurement": "viability, T/C", "setting": "[12]", "result": 8.16, "unit": "%"}
    ]},
    {"smiles": "Cn1nccc1Nc1nccc(-c2cc3c(s2)C(C)(C)N(CCN2CCOCC2)C3=O)n1", "values": [
      {"measurement": "viability, T/C", "setting": "compound 0.0316 µM", "result": "91% [middle of 5 runs]"},
      {"measurement": "viability, T/C", "setting": "compound 0.316 µM", "result": "68.6% [middle of 5 runs]"},
      {"measurement": "viability, T/C", "setting": "compound 1 µM", "result": "30.6% [middle of 5 runs]"},
      {"measurement": "viability, T/C", "setting": "compound 3.16 µM", "result": "7.98% [middle of 5 runs]"},
      {"measurement": "viability, T/C", "setting": "compound 10 µM", "result": "4.32% [middle of 5 runs]"},
      {"measurement": "IC50", "setting": "curve of compound", "result": "574 nM [middle of 4 runs]"}
    ]}
  ]
}
